Test results reported in US20110262442A1, “COMPOSITIONS FOR TREATING CNS DISORDERS” (Adenios, Inc., priority 2009, published 2011).

Experiments:
[1] = test system: hCMEC/D3 cells; assay: cAMP levels in human brain endothelial cells (cAMP Screen kit); format: cell-based; settings: 15 minutes treatment, various concentrations (CCPA: at high levels)
Procedure: Adenosine receptor activation regulates cAMP levels in cells. In order to determine the sensitivity of human brain endothelial cells to adenosine receptor induced cAMP regulation, human brain endothelial cells were cultured with adenosine receptor agonists at various concentrations, followed by cAMP level analysis, as shown in FIG. 13.
HCMECD3 cells were grown to confluencey on 24 well plates. As adenosine receptor (“AR”) stimulation is known to influence cAMP levels, cells were treated with or without various concentrations of NECA (general AR agonist), CCPA (A1 AR agonist), CGS 21860 (A2A AR agonist), DMSO vehicle, or Forksolin (induces cAMP). After 15 minutes, lysis buffer was added and the cells were frozen at −80 C to stop the reaction. Duplicate samples were used for each condition. cAMP levels were assayed using a cAMP Screen kit (Applied Biosystems, Foster City, Calif.).

[2] = test system: blood brain barrier; assay: Evans Blue dye extravasation across the blood brain barrier in mice immunized for EAE; format: in vivo; settings: WT EAE mice; 100 μl 0.01 nM on day 1, 3, 5, 7, 9; dye on day 10
Procedure: In order to determine if activation of adenosine receptors would induce extravazation of Evans Blue dye across the blood brain barrier (BBB), mice were first treated on day one with NECA, a non-selective adenosine receptor agonist (n=2, 100 μl 0.01 nM); and, PBS as a vehicle control (n=2, 100 μl). On day 2 mice were then immunized with CFA-MOG35-55 and pertussis to induce EAE. Then NECA or PBS was administered every other day on day 3, day 5, day 7 and day 9. On day 10, mice were injected intravenously with 200 μl 1% Evans Blue dye ([…] total dye injected). Six hours after administration of Evans Blue, mice were anesthetized with a ketamine/xylazine mix and perfused via the left ventricle with ice cold PBS. Brains were harvested and homogenized in n,n-dimethylformamide (DMF) at 5 μl/mg (v:w). Tissue was incubated for 72 hours at room temperature in DMF to extract the dye. Following extraction, the tissue/solvent mixture was centrifuged at 500×g for 30 minutes and 100 μl of supernatant was read on a BioTex spectrophotometer at 620 nm.

In the case of `CCNC(=O)[C@H]1O[C@@H](n2cnc3c(N)ncnc32)[C@H](O)[C@@H]1O` [NECA, 5′-N-ethylcarboxamidoadenosine], the cAMP levels [1] was “increased cAMP levels” and the “BBB permeability (Evans Blue dye) over PBS control EAE mice” value [2] was “increase in BBB permeability”.
